In patent publication US11535643B2, “Macrolides with modified desosamine sugars and uses thereof” (President and Fellows of Harvard College, priority 2015, dated 2022):
Converted amounts (≈) assume the structure as drawn. Like-named read-outs stand apart in the source and are kept apart here.

Key:
Format in all cases: cell-based
E. faecalis = test: Broth dilution MIC determination (CLSI) against E. faecalis strains
Source text: (§1) Minimum inhibitory concentrations (MICs) for macrolides described herein have been determined for unique strains of S. aureus, S. pneumoniae, S. pyogenes, E. faecalis, E. coli, A. baumannii, K. pneumoniae, P. aeruginosa, and H. influenzae, including several multidrug-resistant strains, with a special focus on macrolide resistant mechanisms. Azithromycin and solithromycin were included as control compounds. CLSI standard procedures for broth dilution MIC determination were used. Data for exemplary compounds described herein is shown in Tables M1-M7 and in Tables N1-N4.

A. baumannii = test: Broth dilution MIC determination (CLSI) against A. baumannii strains
Source text: as §1

E. coli = test: Broth dilution MIC determination (CLSI) against E. coli strains
Source text: as §1

K. pneumoniae = test: Broth dilution MIC determination (CLSI) against K. pneumoniae strains
Source text: as §1, with “used.” for “used. Data for exemplary compounds described herein is shown in Tables M1-M7 and in Tables N1-N4.”

P. aeruginosa = test: Broth dilution MIC determination (CLSI) against P. aeruginosa strains
Source text: as §1

S. pyogenes = test: Broth dilution MIC determination (CLSI) against S. pyogenes strains
Source text: as §1

S. aureus = test: Broth dilution MIC determination (CLSI) against S. aureus strains
Source text: as §1

S. pneumoniae = test: Broth dilution MIC determination (CLSI) against S. pneumoniae strains
Source text: as §1

CC[C@H]1OC(=O)[C@H](C)C(=O)[C@H](C)[C@@H](O[C@@H]2O[C@H](C)CC(N3CCCC3)C2O)[C@](C)(OC)C[C@@H](C)CN[C@H](C)[C@H]2N(CCCCn3cc(-c4cccc(N)c4)nn3)C(=O)O[C@]12C (some centres unmarked) [FSM-120361] was tested, and the MIC (E. faecalis; Enterococcus faecalis, ATCC29212, ATCC29212, Strain No. MP-24, read-out: MIC E. faecalis ATCC29212) was 4 µg/mL (≈ 4.68 µM), the MIC (E. faecalis; Enterococcus faecalis, van resistant, Strain No. UNT-039, read-out: MIC E. faecalis van resistant) was over 64 µg/mL and the MIC (A. baumannii; Acinetobacter baumannii, ATCC19606, ATCC19606, Strain No. MP-15, read-out: MIC A. baumannii ATCC19606) was 32 µg/mL (≈ 37.5 µM). For the same molecule, the MIC (A. baumannii; Acinetobacter baumannii, clinical, Strain No. MP576, read-out: MIC A. baumannii clinical) was over 64 µg/mL, the MIC (A. baumannii; Acinetobacter baumannii, clinical, Strain No. MP577, read-out: MIC A. baumannii clinical) was 64 µg/mL (≈ 74.9 µM) and the MIC (E. coli; Escherichia coli, ATCC25922, ATCC25922, Strain No. MP-4, read-out: MIC E. coli ATCC25922) was 32 µg/mL (≈ 37.5 µM). It also gave an MIC (E. coli; Escherichia coli, ATCC25922, ATCC25922:tolC, Strain No. MP-9, read-out: MIC E. coli ATCC25922:tolC) of 4 µg/mL (≈ 4.68 µM), an MIC (E. coli; Escherichia coli, clinical, Strain No. MP541, read-out: MIC E. coli clinical) of 32 µg/mL (≈ 37.5 µM) and an MIC (E. coli; Escherichia coli, clinical-cErm, Strain No. MP532, read-out: MIC E. coli clinical-cErm) of over 64 µg/mL. It also gave an MIC (K. pneumoniae; Klebsiella pneumoniae, ATCC10031, ATCC10031, Strain No. MP-14, read-out: MIC K. pneumoniae ATCC10031) of 4 µg/mL (≈ 4.68 µM), an MIC (K. pneumoniae; Klebsiella pneumoniae, clinical, Strain No. MP546, read-out: MIC K. pneumoniae clinical) of over 64 µg/mL and an MIC (K. pneumoniae; Klebsiella pneumoniae, clinical, Strain No. MP548, read-out: MIC K. pneumoniae clinical) of 64 µg/mL (≈ 74.9 µM). It also gave an MIC (P. aeruginosa; Pseudomonas aeruginosa, PAO1, read-out: MIC P. aeruginosa PAO1) of over 64 µg/mL, an MIC (P. aeruginosa; Pseudomonas aeruginosa, PAO1, read-out: MIC P. aeruginosa PAO1:mex) of 16 µg/mL (≈ 18.7 µM) and an MIC (P. aeruginosa; Pseudomonas aeruginosa, ATCC27853, Strain No. MP-3, read-out: MIC P. aeruginosa ATCC27853) of over 64 µg/mL. The MIC (S. pyogenes; Streptococcus pyogenes, ATCC19615, ATCC19615, Strain No. MP-19, read-out: MIC S. pyogenes ATCC19615) was 0.06 µg/mL (≈ 0.0702 µM), the MIC (S. pyogenes; Streptococcus pyogenes, mac resistant, Strain No. MP-625 UNT-014, read-out: MIC S. pyogenes mac resistant) was 0.5 µg/mL (≈ 0.585 µM) and the MIC (S. aureus; Staphylococcus aureus, ATCC29213, ATCC29213, Strain No. MP-12, read-out: MIC S. aureus ATCC29213) was 32 µg/mL (≈ 37.5 µM). The MIC (S. aureus; Staphylococcus aureus, ATCCBAA977, ATCCBAA-977, Strain No. MP-17, read-out: MIC S. aureus ATCCBAA-977) was 32 µg/mL (≈ 37.5 µM), the MIC (S. aureus; Staphylococcus aureus, MRSA / USA100, USA100, Strain No. MP-618 UNT-096, read-out: MIC S. aureus (MRSA) USA100) was over 64 µg/mL and the MIC (S. aureus; Staphylococcus aureus, MRSA / USA300, USA300, Strain No. MP-549, read-out: MIC S. aureus (MRSA) USA300) was 32 µg/mL (≈ 37.5 µM). The MIC (S. aureus; Staphylococcus aureus, MRSA / USA600, GISA USA600, Strain No. MP-619 UNT-120, read-out: MIC S. aureus (MRSA) GISA USA600) was over 64 µg/mL, the MIC (S. aureus; Staphylococcus aureus, MRSA, ST-228 cErm, Strain No. MP-513, read-out: MIC S. aureus (MRSA) ST-228 cErm) was over 64 µg/mL and the MIC (S. pneumoniae; Streptococcus pneumoniae, ATCC49619, ATCC49619, Strain No. MP-21, read-out: MIC S. pneumoniae ATCC49619) was 0.25 µg/mL (≈ 0.293 µM). For the same molecule, the MIC (S. pneumoniae; Streptococcus pneumoniae, read-out: MIC S. pneumoniae mefA, mefA, Strain No. MP-626 UNT-038) was 0.125 µg/mL (≈ 0.146 µM) and the MIC (S. pneumoniae; Streptococcus pneumoniae, read-out: MIC S. pneumoniae mefA, mefA, Strain No. MP-627 UNT-039) was 0.125 µg/mL (≈ 0.146 µM).

With CCC1OC(=O)C(C)C(=O)C(C)C(OC2OC(C)CC(N(C)CC#N)C2O)C(C)(OC)CC(C)CNC(C)C2N(CCCCn3cc(-c4cccc(N)c4)nn3)C(=O)OC12C (centres unmarked) [FSM-120371] the MIC (E. faecalis; E. faecalis ATCC29212, strain MP-24 (Table N2)) was 4 µg/mL (≈ 4.69 µM), the MIC (E. faecalis; E. faecalis van resistant, strain UNT-039 (Table N2)) was 64 µg/mL (≈ 75 µM) and the MIC (A. baumannii; A. baumannii ATCC19606, strain MP-15 (Table N2)) was 32 µg/mL (≈ 37.5 µM). The MIC (A. baumannii; A. baumannii clinical, strain MP576 (Table N2)) was over 64 µg/mL, the MIC (A. baumannii; A. baumannii clinical, strain MP577 (Table N2)) was over 64 µg/mL and the MIC (E. coli; E. coli ATCC25922, strain MP-4 (Table N2)) was 64 µg/mL (≈ 75 µM). For the same molecule, the MIC (E. coli; E. coli ATCC25922:tolC, strain MP-9 (Table N2)) was 16 µg/mL (≈ 18.8 µM), the MIC (E. coli; E. coli clinical, strain MP541 (Table N2)) was 64 µg/mL (≈ 75 µM) and the MIC (E. coli; E. coli clinical-cErm, strain MP532 (Table N2)) was over 64 µg/mL. For the same molecule, the MIC (K. pneumoniae; K pneumomae ATCC10031, strain MP-14 (Table N2)) was 8 µg/mL (≈ 9.38 µM), the MIC (K. pneumoniae; K. pneumoniae clinical, strain MP546 (Table N2)) was over 64 µg/mL and the MIC (K. pneumoniae; K. pneumoniae clinical, strain MP548 (Table N2)) was over 64 µg/mL. It also gave an MIC (P. aeruginosa; P. aeruginosa ATCC27853, strain MP-3 (Table N2)) of over 64 µg/mL, an MIC (P. aeruginosa; P. aeruginosa PAO1, strain MP-7 (Table N2)) of over 64 µg/mL and an MIC (P. aeruginosa; P. aeruginosa PAO1:mex, strain MP-8 (Table N2)) of 32 µg/mL (≈ 37.5 µM). It also gave an MIC (S. pyogenes; S. pyogenes ATCC19615, strain MP-19 (Table N2)) of 0.125 µg/mL (≈ 0.147 µM), an MIC (S. pyogenes; S. pyogenes mac resistant, strain MP-625 UNT-014 (Table N2)) of 1 µg/mL (≈ 1.17 µM) and an MIC (S. aureus; S. aureus (MRSA) GISA USA600, strain MP-619 UNT-120 (Table N2)) of over 64 µg/mL. The MIC (S. aureus; S. aureus (MRSA) ST-228 cErm, strain MP-513 (Table N2)) was over 64 µg/mL, the MIC (S. aureus; S. aureus (MRSA) USA100, strain MP-618 UNT-096 (Table N2)) was over 64 µg/mL and the MIC (S. aureus; S. aureus (MRSA) USA300, strain MP-549 (Table N2)) was 64 µg/mL (≈ 75 µM). For the same molecule, the MIC (S. aureus; S. aureus (MRSA) ermA phenotype, strain MP-620 UNT-146 (Table N2)) was over 64 µg/mL, the MIC (S. aureus; S. aureus ATCC29213, strain MP-12 (Table N2)) was 32 µg/mL (≈ 37.5 µM) and the MIC (S. aureus; S. aureus ATCCBAA-977, strain MP-17 (Table N2)) was 32 µg/mL (≈ 37.5 µM). It also gave an MIC (S. pneumoniae; S. pneumoniae ATCC49619, strain MP-21 (Table N2)) of 0.25 µg/mL (≈ 0.293 µM), an MIC (S. pneumoniae; S. pneumoniae mefA, strain MP-626 UNT-038 (Table N2)) of 0.25 µg/mL (≈ 0.293 µM) and an MIC (S. pneumoniae; S. pneumoniae mefA, strain MP-627 UNT-039 (Table N2)) of 0.5 µg/mL (≈ 0.586 µM).
